{"source": "patent EP0170623B1", "about": "“Novel pharmaceutical use of (NVA)2-cyclosporine” (SANDOZ AG, priority 1984, dated 1990)", "tested_on": "Experimental Autoimmune Uveitis (EAV)", "conditions": "25 to 50 mg/kg/day i.m. on 7 consecutive days commencing 7 days after immunization with bovine S antigen; histopathology on day 14; compared with olive oil control groups", "data": [{"substance": "(Nva)^2-Cyclosporine", "values": [{"measurement": "number of animals evidencing EAV", "result": "substantial reduction"}]}]}
